The values below come from ChEMBL document CHEMBL1145720, “Daleformis, a new phytoalexin from the roots fo Dalea filiciformis: an inhibitor of endothelin converting enzyme” (J Nat Prod, 1997).

Each structure is given as a SMILES string. Active and inactive are the calls of the source. The calls are words filed in the database; no cut-off is given here.

The assay in a line: Inhibition of ECE.

With `CC(=O)Oc1ccc2c(c1)O[C@@H]1c3ccc4c(c3O[C@@H](OC(C)=O)[C@H]21)C=CC(C)(C)O4`, the result was inactive. As to `CC1(C)C=Cc2c(ccc3c2O[C@@H](O)[C@@H]2c4ccc(O)cc4O[C@H]32)O1` [DALEFORMIS], the concentration for half-maximal inhibition (IC50) was 9 µM.

The term IC50 denotes the point on the concentration scale where inhibition reaches its midpoint. High values mean weaker potency in that assay, low ones greater potency in that assay.
